In assay [1] the target is 5-hydroxytryptamine receptor 1D (Homo sapiens) (UniProt P28221). The note with it: Compound concentration 10.0 uM.
Assay [2] concerns the target Histamine H2 receptor (Homo sapiens) (UniProt P25021). Conditions: Compound concentration 10.0 uM.
Assay [3] addresses Gamma-aminobutyric acid receptor subunit alpha-1 (Rattus norvegicus) (UniProt P62813). In words: BZD/CENTR/R Eurofins SafetyScreen44 (BI). Conditions: Compound concentration 10.0 uM.
The target of assay [4] is Sodium-dependent noradrenaline transporter (Homo sapiens) (UniProt P23975). Conditions: Compound concentration 10.0 uM.
Chain of Sodium-dependent noradrenaline transporter (Homo sapiens) (P23975 whole entry): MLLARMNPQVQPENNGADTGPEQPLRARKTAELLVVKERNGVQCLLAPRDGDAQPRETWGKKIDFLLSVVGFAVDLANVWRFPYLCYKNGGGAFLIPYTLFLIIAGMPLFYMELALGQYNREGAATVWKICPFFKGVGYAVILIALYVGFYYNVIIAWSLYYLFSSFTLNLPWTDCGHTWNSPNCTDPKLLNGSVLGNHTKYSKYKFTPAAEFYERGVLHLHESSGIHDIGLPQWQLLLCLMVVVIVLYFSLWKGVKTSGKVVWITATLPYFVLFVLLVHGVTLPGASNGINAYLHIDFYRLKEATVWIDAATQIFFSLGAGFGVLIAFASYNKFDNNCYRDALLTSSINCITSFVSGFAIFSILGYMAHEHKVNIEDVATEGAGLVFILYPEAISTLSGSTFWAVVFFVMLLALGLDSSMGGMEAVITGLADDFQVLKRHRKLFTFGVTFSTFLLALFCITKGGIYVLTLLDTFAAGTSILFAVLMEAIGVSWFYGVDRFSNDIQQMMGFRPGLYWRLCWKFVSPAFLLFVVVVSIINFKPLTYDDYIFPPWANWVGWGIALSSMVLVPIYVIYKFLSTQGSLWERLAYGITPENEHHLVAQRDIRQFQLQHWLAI
For assay [5], the target named is Vasopressin V1a receptor (Homo sapiens) (UniProt P37288). In words: V1A/HUM Eurofins SafetyScreen44 (BI). The note with it: Compound concentration 10.0 uM.
Chain of Vasopressin V1a receptor (Homo sapiens) (P37288 whole entry, looked up): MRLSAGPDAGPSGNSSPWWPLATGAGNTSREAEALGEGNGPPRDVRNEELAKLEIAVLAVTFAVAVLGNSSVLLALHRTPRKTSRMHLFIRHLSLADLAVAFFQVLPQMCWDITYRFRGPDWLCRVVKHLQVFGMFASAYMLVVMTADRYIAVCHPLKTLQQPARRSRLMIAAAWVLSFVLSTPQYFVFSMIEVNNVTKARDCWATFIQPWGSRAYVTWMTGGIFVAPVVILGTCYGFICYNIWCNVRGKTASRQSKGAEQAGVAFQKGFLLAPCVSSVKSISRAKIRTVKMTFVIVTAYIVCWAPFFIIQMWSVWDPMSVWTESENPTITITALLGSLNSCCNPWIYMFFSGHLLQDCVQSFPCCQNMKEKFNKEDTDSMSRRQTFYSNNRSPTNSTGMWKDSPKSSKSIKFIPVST
Assay [6] concerns the target Sodium-dependent serotonin transporter (Homo sapiens) (UniProt P31645). Conditions: Compound concentration 10.0 uM.
In assay [7] the target is Beta-3 adrenergic receptor (Homo sapiens) (UniProt P13945). The note with it: Compound concentration 10.0 uM.
Chain of Beta-3 adrenergic receptor (Homo sapiens) (P13945 whole entry, looked up): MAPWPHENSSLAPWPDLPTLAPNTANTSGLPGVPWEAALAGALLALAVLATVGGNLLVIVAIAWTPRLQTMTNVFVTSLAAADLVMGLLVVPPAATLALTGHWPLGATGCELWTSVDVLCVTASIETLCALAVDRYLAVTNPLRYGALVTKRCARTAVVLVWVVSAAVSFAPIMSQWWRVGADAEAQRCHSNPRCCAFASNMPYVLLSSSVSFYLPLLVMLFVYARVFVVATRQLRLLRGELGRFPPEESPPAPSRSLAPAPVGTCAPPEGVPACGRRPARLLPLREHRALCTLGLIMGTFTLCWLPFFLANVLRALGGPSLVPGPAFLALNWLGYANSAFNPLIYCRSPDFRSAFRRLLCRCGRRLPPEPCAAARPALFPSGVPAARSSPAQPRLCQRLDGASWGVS
Assay [8] has as its target Sodium-dependent dopamine transporter (Homo sapiens) (UniProt Q01959). The assay is described as follows: DATRANS/HUM Eurofins SafetyScreen44 (BI). Conditions: Compound concentration 10.0 uM.
The target of assay [9] is D(1A) dopamine receptor (Homo sapiens) (UniProt P21728). The assay is described as follows: D1/H Eurofins SafetyScreen44 (BI). The note with it: filed as antagonist, Compound concentration 10.0 uM.
Assay [10] concerns the target cGMP-inhibited 3',5'-cyclic phosphodiesterase 3A (Homo sapiens) (UniProt Q14432). The assay is described as follows: PDE3A Eurofins SafetyScreen44 (BI). Conditions: Compound concentration 10.0 uM.
Assay [11] concerns the target Muscarinic acetylcholine receptor M5 (Homo sapiens) (UniProt P08912). The note with it: Compound concentration 10.0 uM.
The target in assay [12] is T1, Alpha-1B adrenergic receptor (Homo sapiens) (UniProt P35368).
T1 sequence (whole entry): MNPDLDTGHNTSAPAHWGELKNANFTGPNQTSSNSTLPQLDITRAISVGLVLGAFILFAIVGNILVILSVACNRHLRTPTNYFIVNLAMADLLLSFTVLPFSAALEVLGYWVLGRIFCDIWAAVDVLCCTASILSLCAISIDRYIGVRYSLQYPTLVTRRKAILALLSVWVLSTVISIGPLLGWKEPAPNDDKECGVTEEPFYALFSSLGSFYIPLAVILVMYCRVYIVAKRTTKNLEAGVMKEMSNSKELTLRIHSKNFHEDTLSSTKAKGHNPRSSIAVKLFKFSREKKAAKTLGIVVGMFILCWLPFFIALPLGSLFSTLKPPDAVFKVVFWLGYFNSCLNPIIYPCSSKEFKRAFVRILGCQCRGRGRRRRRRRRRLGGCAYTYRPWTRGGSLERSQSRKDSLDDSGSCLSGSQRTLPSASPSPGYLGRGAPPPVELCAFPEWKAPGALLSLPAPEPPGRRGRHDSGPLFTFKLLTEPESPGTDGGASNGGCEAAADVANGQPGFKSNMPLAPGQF
The note with it: Compound concentration 10.0 uM.

For another assay, the species on record is Rattus norvegicus. The note with it: Compound concentration 10.0 uM.
The target in assay [13] is Voltage-dependent N-type calcium channel subunit alpha-1B (Rattus norvegicus) (UniProt Q02294). The assay is described as follows: CA+/N/RA Eurofins SafetyScreen44 (BI). The note with it: Compound concentration 10.0 uM.
Assay [14] concerns the target T1, Alpha-1B adrenergic receptor (Homo sapiens). The assay is described as follows: ALPHA1B/R Eurofins SafetyScreen44 (BI). Conditions: Rattus norvegicus; Compound concentration 10.0 uM.
The target in assay [15] is D(4) dopamine receptor (Homo sapiens) (UniProt P21917). In words: D4.2/H Eurofins SafetyScreen44 (BI). The note with it: Compound concentration 10.0 uM.
Assay [16] deals with Glutamate NMDA receptor (Rattus norvegicus) (UniProt P35439+Q00959+Q00960+Q00961+Q62645+Q8VHN2+Q9R1M7). In words: NMDAAGSI/RA Eurofins SafetyScreen44 (BI). The note with it: filed as agonist, Compound concentration 10.0 uM.
For assay [17], the target named is T2, Alpha-1A adrenergic receptor (Homo sapiens) (UniProt P35348).
T2 sequence (whole entry): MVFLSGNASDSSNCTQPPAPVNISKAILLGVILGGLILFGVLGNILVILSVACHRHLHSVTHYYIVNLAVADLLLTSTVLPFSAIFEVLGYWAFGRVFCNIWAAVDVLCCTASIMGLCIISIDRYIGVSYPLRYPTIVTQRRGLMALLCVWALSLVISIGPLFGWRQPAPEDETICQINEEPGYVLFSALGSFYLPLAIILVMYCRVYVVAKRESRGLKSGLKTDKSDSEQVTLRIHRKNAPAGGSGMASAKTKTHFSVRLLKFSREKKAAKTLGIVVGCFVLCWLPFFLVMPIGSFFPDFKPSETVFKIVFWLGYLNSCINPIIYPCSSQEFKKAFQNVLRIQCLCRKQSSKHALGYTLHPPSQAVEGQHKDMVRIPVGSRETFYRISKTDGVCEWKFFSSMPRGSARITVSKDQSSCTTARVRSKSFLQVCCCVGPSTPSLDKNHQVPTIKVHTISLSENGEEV
In words: ALPHA1A/R Eurofins SafetyScreen44 (BI). The note with it: Rattus norvegicus; Compound concentration 10.0 uM.

In assay [18] the target is Sodium- and chloride-dependent GABA transporter 1 (Rattus norvegicus) (UniProt P23978). In words: GABATRANS/RA Eurofins SafetyScreen44 (BI). The note with it: Compound concentration 10.0 uM.
Assay [19] concerns the target T3, Muscarinic acetylcholine receptor M1 (Homo sapiens) (UniProt P11229).
T3 sequence (whole entry): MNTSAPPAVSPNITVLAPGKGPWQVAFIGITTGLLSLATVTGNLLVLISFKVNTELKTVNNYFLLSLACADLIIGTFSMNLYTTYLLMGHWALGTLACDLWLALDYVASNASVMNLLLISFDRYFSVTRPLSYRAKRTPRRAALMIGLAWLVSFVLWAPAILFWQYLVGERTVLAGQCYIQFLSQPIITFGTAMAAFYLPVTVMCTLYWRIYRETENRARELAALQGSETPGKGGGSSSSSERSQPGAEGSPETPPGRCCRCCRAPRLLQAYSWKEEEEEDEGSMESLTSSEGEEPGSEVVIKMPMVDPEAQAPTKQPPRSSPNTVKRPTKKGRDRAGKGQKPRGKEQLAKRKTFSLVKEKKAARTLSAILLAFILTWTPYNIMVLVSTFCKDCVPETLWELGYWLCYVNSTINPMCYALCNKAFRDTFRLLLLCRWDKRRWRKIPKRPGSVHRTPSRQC
In words: M1/HU Eurofins SafetyScreen44 (BI). The note with it: Compound concentration 10.0 uM.

In assay [20] the target is Histamine H2 receptor (Homo sapiens) (UniProt P25021). In words: H2/H Eurofins SafetyScreen44 (BI). Conditions: Compound concentration 10.0 uM.
Chain of Histamine H2 receptor (Homo sapiens) (P25021 whole entry): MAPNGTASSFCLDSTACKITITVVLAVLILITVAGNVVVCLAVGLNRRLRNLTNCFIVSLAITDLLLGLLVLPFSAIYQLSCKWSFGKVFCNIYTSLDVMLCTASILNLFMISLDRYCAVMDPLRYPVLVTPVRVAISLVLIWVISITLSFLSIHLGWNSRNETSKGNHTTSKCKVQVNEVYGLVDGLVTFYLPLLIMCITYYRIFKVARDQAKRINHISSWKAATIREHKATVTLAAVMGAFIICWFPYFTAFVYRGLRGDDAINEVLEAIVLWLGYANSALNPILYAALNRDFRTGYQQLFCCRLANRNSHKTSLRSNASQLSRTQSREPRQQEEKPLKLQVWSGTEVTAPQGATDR
For assay [21], the target named is Androgen receptor (Rattus norvegicus) (UniProt P15207). The assay is described as follows: TESTOST/RA Eurofins SafetyScreen44 (BI). Conditions: Compound concentration 10.0 uM.
Chain of Androgen receptor (Rattus norvegicus) (P15207 whole entry S389L): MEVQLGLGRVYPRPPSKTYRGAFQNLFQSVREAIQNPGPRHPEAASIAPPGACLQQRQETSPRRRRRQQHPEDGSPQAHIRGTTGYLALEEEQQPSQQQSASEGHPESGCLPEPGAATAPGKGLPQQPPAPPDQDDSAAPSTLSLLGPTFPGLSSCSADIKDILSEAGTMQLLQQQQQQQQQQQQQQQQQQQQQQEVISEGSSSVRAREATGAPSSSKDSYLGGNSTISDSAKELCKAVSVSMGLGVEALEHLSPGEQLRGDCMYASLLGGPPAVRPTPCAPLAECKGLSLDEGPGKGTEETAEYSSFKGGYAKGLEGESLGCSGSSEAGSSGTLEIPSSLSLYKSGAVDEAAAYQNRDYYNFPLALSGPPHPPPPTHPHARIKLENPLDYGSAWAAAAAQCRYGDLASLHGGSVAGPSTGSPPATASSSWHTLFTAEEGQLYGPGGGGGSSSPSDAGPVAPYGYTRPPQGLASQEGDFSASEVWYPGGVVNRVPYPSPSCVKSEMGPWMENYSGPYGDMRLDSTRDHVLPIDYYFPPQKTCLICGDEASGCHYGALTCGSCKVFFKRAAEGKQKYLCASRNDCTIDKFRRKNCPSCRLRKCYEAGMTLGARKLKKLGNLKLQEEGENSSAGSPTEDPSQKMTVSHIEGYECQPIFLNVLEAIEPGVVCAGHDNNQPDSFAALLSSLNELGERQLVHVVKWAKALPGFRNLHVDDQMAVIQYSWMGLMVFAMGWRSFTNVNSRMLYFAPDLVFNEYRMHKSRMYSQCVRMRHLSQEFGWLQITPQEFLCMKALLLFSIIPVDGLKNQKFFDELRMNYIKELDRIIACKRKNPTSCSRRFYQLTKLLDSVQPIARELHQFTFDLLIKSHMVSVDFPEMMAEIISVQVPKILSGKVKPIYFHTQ
Assay [22] addresses Free fatty acid receptor 1 (Homo sapiens, UniProt O14842). In words: FFAR1 biochemical assay.

Calls of active or inactive are those of the source. The rule behind the calls is not given here.

This passage reports inhibition, residual activity and Ki results from ChEMBL document CHEMBL5058643, “Data for DCP probe BI-2081” (2022).

Chain of Muscarinic acetylcholine receptor M5 (Homo sapiens) (P08912 whole entry): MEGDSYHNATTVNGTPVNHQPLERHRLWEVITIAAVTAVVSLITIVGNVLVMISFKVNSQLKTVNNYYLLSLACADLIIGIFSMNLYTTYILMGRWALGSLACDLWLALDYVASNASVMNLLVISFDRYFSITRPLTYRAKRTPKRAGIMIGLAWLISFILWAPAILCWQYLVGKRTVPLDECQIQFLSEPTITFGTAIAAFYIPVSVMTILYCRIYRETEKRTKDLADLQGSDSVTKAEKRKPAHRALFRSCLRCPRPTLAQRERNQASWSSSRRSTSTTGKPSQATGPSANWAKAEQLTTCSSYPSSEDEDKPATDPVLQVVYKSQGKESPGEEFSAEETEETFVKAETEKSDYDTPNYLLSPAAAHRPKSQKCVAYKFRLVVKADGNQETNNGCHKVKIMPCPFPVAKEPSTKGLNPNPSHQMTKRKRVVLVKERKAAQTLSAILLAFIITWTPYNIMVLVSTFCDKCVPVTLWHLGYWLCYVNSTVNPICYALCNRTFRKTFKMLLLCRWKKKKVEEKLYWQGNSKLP
Chain of Sodium-dependent serotonin transporter (Homo sapiens) (P31645 whole entry, looked up): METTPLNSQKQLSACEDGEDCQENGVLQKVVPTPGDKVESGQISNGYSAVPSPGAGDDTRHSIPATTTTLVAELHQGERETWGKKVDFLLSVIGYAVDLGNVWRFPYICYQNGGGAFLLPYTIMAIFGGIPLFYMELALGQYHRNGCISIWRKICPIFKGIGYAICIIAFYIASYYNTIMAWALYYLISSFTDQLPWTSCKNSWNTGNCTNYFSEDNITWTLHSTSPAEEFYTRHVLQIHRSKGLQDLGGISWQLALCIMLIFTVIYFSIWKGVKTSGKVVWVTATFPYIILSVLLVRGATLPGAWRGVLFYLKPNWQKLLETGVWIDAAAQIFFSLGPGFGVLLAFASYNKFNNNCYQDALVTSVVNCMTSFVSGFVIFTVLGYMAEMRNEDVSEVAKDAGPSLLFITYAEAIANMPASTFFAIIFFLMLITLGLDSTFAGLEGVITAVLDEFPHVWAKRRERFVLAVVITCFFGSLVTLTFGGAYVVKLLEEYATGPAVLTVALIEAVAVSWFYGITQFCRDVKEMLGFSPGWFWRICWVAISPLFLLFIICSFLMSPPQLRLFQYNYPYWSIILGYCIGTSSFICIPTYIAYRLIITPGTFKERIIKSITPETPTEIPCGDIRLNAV
Chain of 5-hydroxytryptamine receptor 1D (Homo sapiens) (P28221 whole entry): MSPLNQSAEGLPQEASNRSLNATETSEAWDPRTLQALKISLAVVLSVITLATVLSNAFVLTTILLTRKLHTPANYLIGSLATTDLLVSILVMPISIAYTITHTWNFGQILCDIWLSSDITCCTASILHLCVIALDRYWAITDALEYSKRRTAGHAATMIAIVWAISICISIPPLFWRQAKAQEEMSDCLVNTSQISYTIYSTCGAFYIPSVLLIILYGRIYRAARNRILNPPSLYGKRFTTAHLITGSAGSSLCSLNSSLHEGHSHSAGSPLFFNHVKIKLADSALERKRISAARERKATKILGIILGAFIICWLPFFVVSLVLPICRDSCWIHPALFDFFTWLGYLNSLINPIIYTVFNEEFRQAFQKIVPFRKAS
Chain of Gamma-aminobutyric acid receptor subunit alpha-1 (Rattus norvegicus) (P62813 whole entry): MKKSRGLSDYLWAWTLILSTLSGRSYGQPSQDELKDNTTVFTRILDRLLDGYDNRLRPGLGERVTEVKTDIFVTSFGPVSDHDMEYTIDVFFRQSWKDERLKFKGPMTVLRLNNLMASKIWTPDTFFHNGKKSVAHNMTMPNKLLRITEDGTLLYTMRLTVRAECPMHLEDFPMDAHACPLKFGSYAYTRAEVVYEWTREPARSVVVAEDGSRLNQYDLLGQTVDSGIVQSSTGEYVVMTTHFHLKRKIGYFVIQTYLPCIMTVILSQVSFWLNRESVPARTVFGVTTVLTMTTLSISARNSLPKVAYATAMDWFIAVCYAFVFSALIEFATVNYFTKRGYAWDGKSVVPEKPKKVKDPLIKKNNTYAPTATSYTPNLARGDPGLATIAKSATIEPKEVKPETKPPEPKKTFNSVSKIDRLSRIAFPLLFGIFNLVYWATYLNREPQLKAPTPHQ
Chain of Free fatty acid receptor 1 (O14842 whole entry): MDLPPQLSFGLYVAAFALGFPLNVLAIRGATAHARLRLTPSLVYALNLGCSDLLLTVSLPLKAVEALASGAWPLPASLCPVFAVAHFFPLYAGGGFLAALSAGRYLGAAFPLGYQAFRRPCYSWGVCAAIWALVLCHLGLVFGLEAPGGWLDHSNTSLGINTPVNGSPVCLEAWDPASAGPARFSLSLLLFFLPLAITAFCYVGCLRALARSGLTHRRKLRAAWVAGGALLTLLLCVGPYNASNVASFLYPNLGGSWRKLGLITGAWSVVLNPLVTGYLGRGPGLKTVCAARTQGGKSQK

`COCCCS(=O)(=O)c1cc(C)c(-c2ccc(F)c3c2CC[C@H]3Oc2ccc3c(c2)OC[C@H]3CC(=O)O)c(C)c1`: the inhibition in [1] was -3.85%; in assay [2], 15%; in assay [4], 11.1%; in [6], -1.62%; in [7], 11.6%; in [11], -1.63%. Also, the inhibition in [12] was -4.9%; in the assay listed under Rattus norvegicus, 36.1%. The residual activity in assay [3] was 109%; in [5], 90%; in [8] it was 84%; in assay [9], 87%; in assay [10] it was 100%.

With `Cc1cc(OCCC(C)(C)O)cc(C)c1-c1ccc(F)c2c1CC[C@H]2Oc1ccc2c(c1)OC[C@H]2CC(=O)O`, the inhibition in assay [1] is 6.65%; in assay [2], 8.54%; in assay [4] it was 9.38%; in assay [6], 4.25%; in assay [7] it was 20.2%; in [11], -4.38%. Also, the inhibition is -7.32% in assay [12] and 40.4% in the assay filed under Rattus norvegicus. In addition, the residual activity was 113% in assay [13]; 114% in assay [14]; 99% in assay [15]; 89% in assay [16]; 73% in [17]; 88% in [18]. For the same compound, the results for the residual activity in assay [19], in [20] and in [21] were 83%, 95% and 75%, respectively. Moreover, the Ki in assay [22] is 23 nM (active).
